Experimental data from patent publication US20090176807A1, “GLUCOCORTICOID MIMETICS, METHODS OF MAKING THEM, PHARMACEUTICAL COMPOSITIONS, AND USES THEREOF” (priority 2005, published 2009).

Assays:
[1] = system: Human osteosarcoma MG-63 cells; assay: Inhibition of osteocalcin production from osteoblast cell line MG-63; format: cell-based; details: Vitamin D 10 nM, 48 hours, osteocalcin ELISA, result in words only
Procedure: Human osteosarcoma MG-63 cells (ATCC, Cat. No. CRL-1427) are plated on 96 well plates at 20,000 cells per well the day before use in 200 μL media of 99% D-MEM/F-12 (Gibco-Invitrogen, Cat. No. 11039-021), supplemented with 1% penicillin and streptomycin (Gibco-Invitrogen, Cat. No. 15140-122), 10 μg/mL Vitamin C (Sigma, Cat. No. A-4544), and 1% charcoal filtered Fetal Bovine Serum (HyClone, Cat. No. SH30068.02). The next day, wells are replaced with fresh media. Cells are treated with Vitamin D (Sigma, Cat. No. D1530) to a final concentration of 10 nM, and with the test compounds in concentrations of 10^−6 M to 10^−9 M, in a total volume of 200 μL per well. Samples are done in duplicates. […] Positive control wells receive Vitamin D only, without compounds, and represent maximum (100%) amount of osteocalcin production. Plates are incubated at 37° C. incubator for 48 hours and supernatants are harvested at the end of incubation. Amounts of osteocalcin in the supernatants are determined by the Glype osteocalcin ELISA kit (Zymed, Cat. No. 99-0054) according to manufacture's protocol. Inhibition of osteocalcin by test compounds is expressed in percentage relative to positive controls. IC50 values of the test compounds are derived by non-lineal curve fitting.

[2] = biological target: T1, human glucocorticoid receptor (GR) complex (Homo sapiens, UniProt P04150); assay: Glucocorticoid receptor competitive binding assay (fluorescence polarization); details: competition with TAMRA-labeled dexamethasone, result in words only
T1 construct: made in house; host or cells: insect expression system (baculovirus lysate)
T1 sequence (P04150 1-777): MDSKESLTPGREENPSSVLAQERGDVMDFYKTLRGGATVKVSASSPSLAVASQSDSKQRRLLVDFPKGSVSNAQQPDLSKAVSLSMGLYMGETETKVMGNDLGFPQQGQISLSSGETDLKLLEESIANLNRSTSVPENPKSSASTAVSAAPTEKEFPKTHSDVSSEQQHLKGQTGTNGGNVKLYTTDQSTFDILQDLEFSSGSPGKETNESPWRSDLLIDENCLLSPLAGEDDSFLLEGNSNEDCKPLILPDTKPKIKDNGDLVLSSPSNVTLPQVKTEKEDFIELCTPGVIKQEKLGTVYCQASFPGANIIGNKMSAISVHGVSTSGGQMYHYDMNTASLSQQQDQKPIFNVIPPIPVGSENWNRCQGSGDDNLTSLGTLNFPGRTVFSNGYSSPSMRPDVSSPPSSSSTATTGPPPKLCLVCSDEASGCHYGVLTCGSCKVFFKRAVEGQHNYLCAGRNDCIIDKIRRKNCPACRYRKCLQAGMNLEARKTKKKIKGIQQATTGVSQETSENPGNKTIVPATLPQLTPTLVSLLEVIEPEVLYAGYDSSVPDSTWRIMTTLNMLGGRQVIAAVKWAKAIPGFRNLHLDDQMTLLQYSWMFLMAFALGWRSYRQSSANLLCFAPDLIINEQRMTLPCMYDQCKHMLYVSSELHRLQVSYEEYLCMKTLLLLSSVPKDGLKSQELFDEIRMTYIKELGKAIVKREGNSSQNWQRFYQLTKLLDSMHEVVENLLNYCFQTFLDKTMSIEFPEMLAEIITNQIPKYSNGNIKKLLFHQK
Procedure: Compounds of the invention were evaluated for binding to the steroid receptor by a fluorescence polarization competitive binding assay.
The wavelengths for maximum excitation and emission of the fluorescent probe should first be measured. An example of such a probe is rhodamine (TAMRA)-labeled dexamethasone.
The affinity of the probe for the steroid receptor was then determined in a titration experiment. The fluorescence polarization value of the probe in assay buffer was measured on an SLM-8100 fluorometer using the excitation and emission maximum values described above. Aliquots of expression vector lysate were added and fluorescence polarization was measured after each addition until no further change in polarization value was observed. Non-linear least squares regression analysis was used to calculate the dissociation constant of the probe from the polarization values obtained for lysate binding to the probe.
This assay uses fluorescence polarization (FP) to quantitate the ability of test compounds to compete with tetramethyl rhodamine (TAMRA)-labeled dexamethasone for binding to a human glucocorticoid receptor (GR) complex prepared from an insect expression system. The assay buffer was: 10 mM TES, 50 mM KCl, 20 mM Na2MoO4.2H2O, 1.5 mM EDTA, 0.04% w/v CHAPS, 10% v/v glycerol, 1 mM dithiothreitol, pH 7.4. Test compounds were dissolved to 1 mM in neat DMSO and then further diluted to 10× assay concentration in assay buffer supplemented with 10% v/v DMSO. Test compounds were serially diluted at 10× assay concentrations in 10% DMSO-containing buffer in 96-well polypropylene plates. Binding reaction mixtures were prepared in 96-well black Dynex microtiter plates by sequential addition of the following assay components to each well: 15 μL of 10× test compound solution, 85 μL of GR-containing baculovirus lysate diluted 1:170 in assay buffer, and 50 μL of 15 nM TAMRA-labeled dexamethasone. Positive controls were reaction mixtures containing no test compound; negative controls (blanks) were reaction mixtures containing 0.7 μM to 2 μM dexamethasone. […] IC50 values were determined by iterative non-linear curve fitting of the FP signal data to a 4-parameter logistic equation.

SMILES: CC(C)(CC(O)(Cn1ccc(=O)c2sccc21)C(F)(F)F)c1cc(-c2cccnc2)ccc1O (centres unmarked) [4-[2-Hydroxy-4-(2-hydroxy-5-pyridin-3-ylphenyl)-4-methyl-2-trifluoromethylpentyl]-4H-thieno[3,2-b]pyridin-7-one]
- inhibition of the vitamin D stimulated production of osteocalcin [1]: inhibit the vitamin D stimulated production of osteocalcin
- activity in the GR binding assay [2]: potent activity

SMILES: CC(C)(CC(O)(Cn1cc(Cl)c(=O)c2cnccc21)C(F)(F)F)c1cccc2c1OCC2 (centres unmarked) [3-Chloro-1-[4-(2,3-dihydrobenzofuran-7-yl)-2-hydroxy-4-methyl-2-trifluoromethylpentyl]-1H-[1,6]naphthyridin-4-one]
- melting point: 158 to 160 °C
- activity in the GR binding assay [2]: potent activity

SMILES: CC(C)(CC(O)(Cn1cc(Cl)c(=O)c2sccc21)C(F)(F)F)c1cc(-c2cncnc2)ccc1O (centres unmarked) [6-Chloro-4-[2-hydroxy-4-(2-hydroxy-5-pyrimidin-5-ylphenyl)-4-methyl-2-trifluoromethylpentyl]-4H-thieno[3,2-b]pyridin-7-one]
- inhibition of the vitamin D stimulated production of osteocalcin [1]: inhibit the vitamin D stimulated production of osteocalcin
- activity in the GR binding assay [2]: potent activity

SMILES: CC(C)(CC(O)(Cn1cc(Cl)c(=O)c2sccc21)C(F)(F)F)c1cc(-c2cccnc2)ccc1O (centres unmarked) [6-Chloro-4-[2-hydroxy-4-(2-hydroxy-5-pyridin-3-ylphenyl)-4-methyl-2-trifluoromethylpentyl]-4H-thieno[3,2-b]pyridin-7-one]
- inhibition of the vitamin D stimulated production of osteocalcin [1]: inhibit the vitamin D stimulated production of osteocalcin
- activity in the GR binding assay [2]: potent activity

SMILES: CC(C)(CC(O)(Cn1ccc(=O)c2sccc21)C(F)(F)F)c1cc(-c2cncnc2)ccc1O (centres unmarked) [4-[2-Hydroxy-4-(2-hydroxy-5-pyrimidin-5-ylphenyl)-4-methyl-2-trifluoromethylpentyl]-4H-thieno[3,2-b]pyridin-7-one]
- activity in the GR binding assay [2]: potent activity

SMILES: COc1ccc(F)cc1C(C)(C)CC(O)(Cn1ccc(=O)c2sccc21)C(F)(F)F (centres unmarked) [4-[4-(5-Fluoro-2-methoxyphenyl)-2-hydroxy-4-methyl-2-trifluoromethylpentyl]-4H-thieno[3,2-b]pyridin-7-one]
- activity in the GR binding assay [2]: potent activity

SMILES: CC(C)(CC(O)(Cn1ccc(=O)c2sccc21)C(F)(F)F)c1cc(F)ccc1O (centres unmarked) [4-[4-(5-Fluoro-2-hydroxyphenyl)-2-hydroxy-4-methyl-2-trifluoromethylpentyl]-4H-thieno[3,2-b]pyridin-7-one]
- inhibition of the vitamin D stimulated production of osteocalcin [1]: inhibit the vitamin D stimulated production of osteocalcin
- activity in the GR binding assay [2]: potent activity

SMILES: CC(C)(CC(O)(Cn1cc(Br)c(=O)c2sccc21)C(F)(F)F)c1cccc2c1OCO2 (centres unmarked) [4-(4-Benzo[1,3]dioxol-4-yl-2-hydroxy-4-methyl-2-trifluoromethylpentyl)-6-bromo-4H-thieno[3,2-b]pyridin-7-one]
- melting point: 197 to 198 °C
- activity in the GR binding assay [2]: potent activity
